Assay results taken from patent publication US20230255953A1, “USE OF ROLUPERIDONE IN PREVENTING RELAPSE IN SCHIZOPHRENIA PATIENTS” (Minerva Neurosciences, Inc., priority 2022, published 2023).

How the values were obtained:
[1] = system: cholinergic receptors; conditions: background statement; cited from earlier work
[2] = system: patients with negative symptoms of schizophrenia; test: Integrated analysis (pooled ITT): CGI-S and CGI-I; type: in vivo, human; conditions: for CGI-I Score, Difference (95% CI) in LS mean (vs placebo) / CGI-I Score, LS mean (SE) / CGI-I Score, Mean (SD) / CGI-I Score, Median / CGI-S Score change from Baseline, LS mean (SE) / CGI-S Score change from Baseline, Mean (SD) / CGI-S Score change from Baseline, Median / CGI-S Score, Difference (95% CI) in LS mean (vs placebo): DB; for CGI-I Score, Difference (95% CI) in LS mean (vs placebo) / CGI-I Score, LS mean (SE) / CGI-I Score, Mean (SD) / CGI-I Score, Median / CGI-S Score change from Baseline, LS mean (SE) / CGI-S Score change from Baseline, Mean (SD) / CGI-S Score change from Baseline, Median / CGI-S Score, Difference (95% CI) in LS mean (vs placebo) / CGI-I score, LS mean compared with placebo / CGI-S score, LS mean change from Baseline compared with placebo: pooled ITT; for Clinical Global Impression of Severity, Change from Baseline (LS Means [SEM]) / Clinical Global Impression of Improvement (LS Means [SEM]): ITT; for Clinical Global Impression of Improvement (LS Means [SEM]): observed data, MMRM with Baseline CGI-S as covariate
From the text: The primary integrated analysis of the efficacy of Roluperidone compared with placebo for the treatment of negative symptoms of schizophrenia is based on the change from Baseline in the PANSS Marder's negative symptoms factor score (in this document referred to as NSFS) to Week 12. Efficacy is also supported by the analysis of change from Baseline in the PSP Total score and the CGI-S to Week 12.
The CGI-S is a clinician-rated scale that is designed to rate the severity of the patient's illness at the time of assessment, including knowledge of the patient's history, psychosocial circumstances, symptoms, behavior, and the impact of the symptoms on the patient's ability to function relative to the clinician's past experience with patients who have the same diagnosis and similar improvement with treatment. Considering total clinical experience, a patient is assessed on severity of mental illness at the time of rating, where 1=normal (not at all ill); 2=borderline mentally ill; 3=mildly ill; 4=moderately ill; 5=markedly ill; 6=severely ill; or 7=extremely ill.
The Efficacy data from Study Nos. 1 and 2 were pooled. The majority of patients in the pooled ITT population completed the DB period (502 patients overall, 66.3%), with similar rates in each treatment group (placebo: 69.8%, 32 mg Roluperidone: 65.3%, and 64 mg Roluperidone: 63.8%) (Table 12). The majority (62.7%) of those who completed the DB period entered the OL period. The most common reason for discontinuation during the DB period among patients overall was withdrawal of consent (15.6%), followed by adverse events (7.3%) and lack of efficacy (5.4%) (Table 12). […] Approximately twice as many patients in the Roluperidone groups (32 mg: 8.5%; 64 mg: 9.1%) discontinued due to adverse events compared with patients in the placebo group (4.3%). More patients in the placebo group discontinued due to lack of efficacy (6.7%) than in the Roluperidone groups (32 mg: 4.4%; 64 mg: 5.1%). The low number of patients who discontinued due to lack of efficacy or withdrawal of consent probably reflects a low level of worsening of positive symptoms.
The integrated analysis supporting the efficacy of Roluperidone as a treatment for the negative symptoms of schizophrenia in adults is presented below.

Substance: 1H-Isoindol-1-one,2-[ [1-[2-(4-fluorophenyl)-2-oxoethyl]-4-piperidinyl]methyl]-2,3-dihydro-, hydrochloride, hydrate (1:1:2) [Roluperidone]
- Affinity [1]: very low or no affinity
- CGI-I Score, Difference (95% CI) in LS mean (vs placebo) ([2]; 32 mg, Week 2): 0.0
- CGI-I Score, LS mean (SE) ([2]; 32 mg, Week 2): 3.9 (0.05)
- CGI-I Score, Mean (SD) ([2]; 32 mg, Week 2): 3.9 (0.68)
- CGI-I Score, Median ([2]; 32 mg, Week 2): 4.0
- CGI-S Score change from Baseline, LS mean (SE) ([2]; 32 mg, Week 2): −0.1 (0.04)
- CGI-S Score change from Baseline, Mean (SD) ([2]; 32 mg, Week 2): −0.1 (0.47)
- CGI-S Score change from Baseline, Median ([2]; 32 mg, Week 2): 0.0
- CGI-S Score, Difference (95% CI) in LS mean (vs placebo) ([2]; 32 mg, Week 2): 0.0
- CGI-I Score, Difference (95% CI) in LS mean (vs placebo) ([2]; 32 mg, Week 4): −0.2
- CGI-I Score, LS mean (SE) ([2]; 32 mg, Week 4): 3.6 (0.05)
- CGI-I Score, Mean (SD) ([2]; 32 mg, Week 4): 3.6 (0.76)
- CGI-I Score, Median ([2]; 32 mg, Week 4): 4.0
- CGI-S Score change from Baseline, LS mean (SE) ([2]; 32 mg, Week 4): −0.1 (0.03)
- CGI-S Score change from Baseline, Mean (SD) ([2]; 32 mg, Week 4): −0.1 (0.50)
- CGI-S Score change from Baseline, Median ([2]; 32 mg, Week 4): 0.0
- CGI-S Score, Difference (95% CI) in LS mean (vs placebo) ([2]; 32 mg, Week 4): −0.1
- CGI-I Score, Difference (95% CI) in LS mean (vs placebo) ([2]; 32 mg, Week 8): −0.1
- CGI-I Score, LS mean (SE) ([2]; 32 mg, Week 8): 3.5 (0.06)
- CGI-I Score, Mean (SD) ([2]; 32 mg, Week 8): 3.4 (0.80)
- CGI-I Score, Median ([2]; 32 mg, Week 8): 3.0
- CGI-S Score change from Baseline, LS mean (SE) ([2]; 32 mg, Week 8): −0.2 (0.04)
- CGI-S Score change from Baseline, Mean (SD) ([2]; 32 mg, Week 8): −0.3 (0.58)
- CGI-S Score change from Baseline, Median ([2]; 32 mg, Week 8): 0.0
- CGI-S Score, Difference (95% CI) in LS mean (vs placebo) ([2]; 32 mg, Week 8): −0.1
- CGI-I Score, Difference (95% CI) in LS mean (vs placebo) ([2]; 32 mg, Week 12): −0.0
- CGI-I Score, LS mean (SE) ([2]; 32 mg, Week 12): 3.5 (0.07)
- CGI-I Score, Mean (SD) ([2]; 32 mg, Week 12): 3.4 (0.82)
- CGI-I Score, Median ([2]; 32 mg, Week 12): 3.0
- CGI-S Score change from Baseline, LS mean (SE) ([2]; 32 mg, Week 12): −0.3 (0.05)
- CGI-S Score change from Baseline, Mean (SD) ([2]; 32 mg, Week 12): −0.4 (0.65)
- CGI-S Score change from Baseline, Median ([2]; 32 mg, Week 12): 0.0
- CGI-S Score, Difference (95% CI) in LS mean (vs placebo) ([2]; 32 mg, Week 12): −0.1
- Clinical Global Impression of Severity, Change from Baseline (LS Means [SEM]) ([2]; 32 mg, Week 12): −0.3 (0.05)
- Clinical Global Impression of Improvement (LS Means [SEM]) ([2]; 32 mg, Week 12): 3.5 (0.07)
- CGI-I score, LS mean compared with placebo ([2]; 32 mg, Week 12): −0.0
- CGI-S score, LS mean change from Baseline compared with placebo ([2]; 32 mg, Week 12): −0.1
- CGI-I Score, Difference (95% CI) in LS mean (vs placebo) ([2]; 64 mg, Week 2): 0.0
- CGI-I Score, LS mean (SE) ([2]; 64 mg, Week 2): 3.8 (0.05)
- CGI-I Score, Mean (SD) ([2]; 64 mg, Week 2): 3.8 (0.74)
- CGI-I Score, Median ([2]; 64 mg, Week 2): 4.0
- CGI-S Score change from Baseline, LS mean (SE) ([2]; 64 mg, Week 2): −0.1 (0.04)
- CGI-S Score change from Baseline, Mean (SD) ([2]; 64 mg, Week 2): −0.1 (0.55)
- CGI-S Score change from Baseline, Median ([2]; 64 mg, Week 2): 0.0
- CGI-S Score, Difference (95% CI) in LS mean (vs placebo) ([2]; 64 mg, Week 2): −0.0
- CGI-I Score, Difference (95% CI) in LS mean (vs placebo) ([2]; 64 mg, Week 4): −0.2
- CGI-I Score, LS mean (SE) ([2]; 64 mg, Week 4): 3.6 (0.05)
- CGI-I Score, Mean (SD) ([2]; 64 mg, Week 4): 3.5 (0.72)
- CGI-I Score, Median ([2]; 64 mg, Week 4): 4.0
- CGI-S Score change from Baseline, LS mean (SE) ([2]; 64 mg, Week 4): −0.2 (0.03)
- CGI-S Score change from Baseline, Mean (SD) ([2]; 64 mg, Week 4): −0.3 (0.56)
- CGI-S Score change from Baseline, Median ([2]; 64 mg, Week 4): 0.0
- CGI-S Score, Difference (95% CI) in LS mean (vs placebo) ([2]; 64 mg, Week 4): −0.2
- CGI-I Score, Difference (95% CI) in LS mean (vs placebo) ([2]; 64 mg, Week 8): −0.2
- CGI-I Score, LS mean (SE) ([2]; 64 mg, Week 8): 3.4 (0.06)
- CGI-I Score, Mean (SD) ([2]; 64 mg, Week 8): 3.4 (0.81)
- CGI-I Score, Median ([2]; 64 mg, Week 8): 3.0
- CGI-S Score change from Baseline, LS mean (SE) ([2]; 64 mg, Week 8): −0.3 (0.04)
- CGI-S Score change from Baseline, Mean (SD) ([2]; 64 mg, Week 8): −0.3 (0.66)
- CGI-S Score change from Baseline, Median ([2]; 64 mg, Week 8): 0.0
- CGI-S Score, Difference (95% CI) in LS mean (vs placebo) ([2]; 64 mg, Week 8): −0.2
- CGI-I Score, Difference (95% CI) in LS mean (vs placebo) ([2]; 64 mg, Week 12): −0.2
- CGI-I Score, LS mean (SE) ([2]; 64 mg, Week 12): 3.4 (0.07)
- CGI-I Score, Mean (SD) ([2]; 64 mg, Week 12): 3.3 (0.85)
- CGI-I Score, Median ([2]; 64 mg, Week 12): 3.0
- CGI-S Score change from Baseline, LS mean (SE) ([2]; 64 mg, Week 12): −0.4 (0.05)
- CGI-S Score change from Baseline, Mean (SD) ([2]; 64 mg, Week 12): −0.4 (0.69)
- CGI-S Score change from Baseline, Median ([2]; 64 mg, Week 12): 0.0
- CGI-S Score, Difference (95% CI) in LS mean (vs placebo) ([2]; 64 mg, Week 12): −0.2
- Clinical Global Impression of Severity, Change from Baseline (LS Means [SEM]) ([2]; 64 mg, Week 12): −0.4 (0.05)
- Clinical Global Impression of Improvement (LS Means [SEM]) ([2]; 64 mg, Week 12): 3.4 (0.07)
- CGI-I score, LS mean compared with placebo ([2]; 64 mg, Week 12): −0.2
- CGI-S score, LS mean change from Baseline compared with placebo ([2]; 64 mg, Week 12): −0.2
- CGI-I Score, Mean (SD) ([2]; Roluperidone Total, Week 2): 3.9 (0.71)
- CGI-I Score, Median ([2]; Roluperidone Total, Week 2): 4.0
- CGI-S Score change from Baseline, Mean (SD) ([2]; Roluperidone Total, Week 2): −0.1 (0.51)
- CGI-S Score change from Baseline, Median ([2]; Roluperidone Total, Week 2): 0.0
- CGI-I Score, Mean (SD) ([2]; Roluperidone Total, Week 4): 3.6 (0.74)
- CGI-I Score, Median ([2]; Roluperidone Total, Week 4): 4.0
- CGI-S Score change from Baseline, Mean (SD) ([2]; Roluperidone Total, Week 4): −0.2 (0.54)
- CGI-S Score change from Baseline, Median ([2]; Roluperidone Total, Week 4): 0.0
- CGI-I Score, Mean (SD) ([2]; Roluperidone Total, Week 8): 3.4 (0.81)
- CGI-I Score, Median ([2]; Roluperidone Total, Week 8): 3.0
- CGI-S Score change from Baseline, Mean (SD) ([2]; Roluperidone Total, Week 8): −0.3 (0.62)
- CGI-S Score change from Baseline, Median ([2]; Roluperidone Total, Week 8): 0.0
- CGI-I Score, Mean (SD) ([2]; Roluperidone Total, Week 12): 3.3 (0.83)
- CGI-I Score, Median ([2]; Roluperidone Total, Week 12): 3.0
- CGI-S Score change from Baseline, Mean (SD) ([2]; Roluperidone Total, Week 12): −0.4 (0.67)
- CGI-S Score change from Baseline, Median ([2]; Roluperidone Total, Week 12): 0.0
